# Experimental data from patent US11147816B2, “Composition for inducing differentiation and protection of neural stem cells and method for inducing neuro-regeneration using the same composition” (GENUV Inc., priority 2016, dated 2021).
# Entries after “also recorded” stand apart in the source; their conditions may differ. Read-outs that look alike come from different tables or passages of the source.
# Assays:
# [1] = test system: mouse adult neural stem cells; conditions: for cell toxicity / cell death (morphology): AS703026 10 μM; for cell protection and NSC differentiation under amyloid-beta cytotoxicity: 10 μM amyloid-beta, each at its optimal concentration (AS703026 10, AZD8330 1, PD318088 1, binimetinib 10, refametinib 1, PD0325901 10, RO5126766 10 μM); for concentration at which the differentiation-inducing effect starts: no amyloid-beta
# Description: NSC were isolated from the subventricular zone of week 8 mouse brain, treated with 20 ng/ml human basic fibroblast growth factor (bFGF) and 20 ng/ml human epidermal growth factor (EGF) in an IPM medium, and cultured as a suspension in 24-well plates for 7 days.
# Two days before the isolation of single cells, 6-well plates were prepared by treating the wells with 10 μg/ml poly-L-ornithine solution and incubating overnight at room temperature for coating. The next day, poly-L-ornithine solution was removed and the plates were washed 3 times with sterilized triple distilled water. […] The culture solution used is N2 culture medium (supplemented with 20 ng/ml bFGF and 20 ng/ml EGF). Right before seeding, the coating solution was suctioned out, and the single cells were uniformly seeded into the culture plate before the plate dried up. Cells were allowed to attach to the plates for about one minute, and after checking that cells were sufficiently attached, an additional 1.5 ml of culture medium (N2 culture medium with 20 ng/ml bFGF and 20 ng/ml EGF) was added to the cells and cultured in a 37° C. incubator for 24 hours.
# Wells not treated with amyloid-beta were left to use as negative controls.
# Gibco's (Waltham, Mass.) human Aβ (1-42) was purchased to use for the amyloid-beta (Aβ), and the following process was followed to create oligomers. First, amyloid-beta was dissolved in 100% HFIP (1,1,1,3,3,3-hexafluoro-2-propanol) (Sigma, cat#.105228) to obtain a concentration of 1 mg/ml and vortexed at room temperature for 1 hour. Then, it was dried for 10 minutes in a speed Vac, after which DMSO (Sigma, cat#.D2650) was added to bring the concentration to 5 mM and then lightly vortexed at room temperature for 10 minutes. […] The solution was incubated at 4° C. for 24 hours and then added into the cultured cells.
# The NCSs were cultured with the daily addition of EGF, bFGF, amyloid-beta, and test materials for 4 days.
# MEK2 = MEK2 (Homo sapiens (Human), UniProt P36507); conditions: cited from earlier work
# MEK1 = MEK1 (Homo sapiens (Human), UniProt Q02750); conditions: cited from earlier work
# [2] = test system: mouse embryonic neural stem cells; assay: Morphology analysis of NSC differentiation in mouse embryonic neural stem cells (Examples 1, 6); type: cell-based; conditions: for concentration at which differentiation morphology starts: tested at 0.1, 1.0, 10 μM
# Description: Neural stem cells were isolated from the brain of a day 14.5 mouse embryo, treated with 10 ng/ml human basic fibroblast growth factor (bFGF) (Peprotech, Princeton, NG, cat#.100-18B) and 20 ng/ml human epidermal growth factor (EGF) (Peprotech, cat#. AF-100-15) in a N2 culture medium, and cultured in suspension in a 25 cm2 flask (Nunc, Pittsburgh, Pa.) for 4 days. Formation of neurospheres was observed after 2 days.
# In order to isolate single cells, 6-well plates were prepared the day before by treating the wells with 15 μg/ml poly-L-ornithine (Sigma, St. Louis, Mo., cat#.P2533) solution and incubating overnight at 37° C. for coating. The day of the single cell isolation, poly-L-ornithine solution was removed, the plates were washed with PBS three times, and 10 μg/ml fibronectin (Gibco, Waltham, Mass., cat#. 33016015) solution was added and incubated at 37° C. for 2 hours for coating.
# Various concentrations of the compound of [Formula 1] […]
# MEK 1, MEK2 = conditions: literature reference; cited from earlier work
# [3] = test system: mouse embryonic neural stem cells; assay: Immunocytochemistry analysis, Tuj1 and DAPI staining (Example 3); type: cell-based; conditions: 4 days
# Description: Tuj1 (Neuron specific class III beta-tubulin) is a neuron specific marker protein, which was conjugated to rhodamine to show fluorescent red, while DAPI binds to the cell DNA and stains the cell nuclei fluorescent blue. […] The medium was removed and the cells were washed with PBS. After fixing with 10% formaldehyde (Sigma cat#. HT501128) at room temperature for 10 minutes, they were washed again with PBS. They were permeabilized with 0.2% Triton X-100 (Sigma, cat#. 93443) at room temperature for 15 minutes, washed with PBS, and incubated with 10% BSA (Sigma, cat#. A2153)+1% normal goat serum (Vector lab, Burlingame, Calif., cat#. S1000) at room temperature for 1 hour. […] The solution was removed, washed with PBS, and incubated at room temperature for 1 hour with the secondary antibody (rhodamine-conjugated antibody) diluted in 1% BSA+1% normal goat serum at a ratio of 1:200. Then, the cells were washed with PBS, incubated with 5 μg/ml DAPI (Sigma, cat#. D9542) for 5 minutes, washed with PBS again, and mounted on a slide glass for analysis with a fluorescent microscope.
# [4] = test system: mouse embryonic neural stem cells; assay: qRT-PCR of relative mRNA expression of neuronal markers in mouse embryonic NSC (Examples 4-1, 4-2, 6); type: cell-based; conditions: 10 μM (10000 nM)
# Description: Isopropanol (Ducsan, GyunggiDo, Korea, cat#. 67-63-0) was added and mixed for RNA isolation, then centrifuged again to remove the supernatant and obtain the pellet. The RNA pellet was resuspended in 75% ethanol (Ducsan, cat#. 64-17-15), centrifuged, and the supernatant removed. The pellet was then resuspended in sterilized triple distilled water to obtain the mRNA, incubated for 10 minutes at 55° C., and stored at −80° C.
# Sterilized triple distilled water, […] oligo dT, and 1 mM dNTP were added to the RNA and incubated for 5 minutes at 65° C. This was followed by the addition of 5X First-strand buffer, 10 mM DTT, and M-MLV reverse transcriptase and incubated at 42° C. for 1 hour, then at 72° C. for 15 minutes, and at 4° C. for 30 minutes. The synthesized cDNA was stored at −20° C.
# The term relative mRNA expression level signifies that in order to normalize each group's total RNA level, the mRNA expression level of each differentiation marker is divided by the expression level of GAPDH whose expression level is fairly constant across cells, and then the values of each test material are compared with those of the controls (undifferentiated NSC) in each group.
# [5] = trametinib 10 nM, 100 nM, memantine 5 μM, 10 μM, 4 days
# [6] = 1.0 μM and 10 μM, day 2 of culture
# [7] = 1.0 nM and 10 nM, day 2 of culture
# Chain of MEK1 (Q02750 whole entry, species assumed): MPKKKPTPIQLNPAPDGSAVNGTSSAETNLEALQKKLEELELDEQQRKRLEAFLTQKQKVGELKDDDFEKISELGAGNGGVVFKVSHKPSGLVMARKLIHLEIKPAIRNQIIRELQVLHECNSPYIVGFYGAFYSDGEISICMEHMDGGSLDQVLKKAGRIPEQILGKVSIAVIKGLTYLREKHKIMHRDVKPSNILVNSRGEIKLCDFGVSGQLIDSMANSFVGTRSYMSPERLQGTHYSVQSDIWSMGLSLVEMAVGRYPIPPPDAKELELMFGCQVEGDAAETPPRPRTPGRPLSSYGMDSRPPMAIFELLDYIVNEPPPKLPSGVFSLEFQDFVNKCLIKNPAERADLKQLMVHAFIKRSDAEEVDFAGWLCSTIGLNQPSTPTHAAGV
# Chain of MEK2 (P36507 whole entry, species assumed): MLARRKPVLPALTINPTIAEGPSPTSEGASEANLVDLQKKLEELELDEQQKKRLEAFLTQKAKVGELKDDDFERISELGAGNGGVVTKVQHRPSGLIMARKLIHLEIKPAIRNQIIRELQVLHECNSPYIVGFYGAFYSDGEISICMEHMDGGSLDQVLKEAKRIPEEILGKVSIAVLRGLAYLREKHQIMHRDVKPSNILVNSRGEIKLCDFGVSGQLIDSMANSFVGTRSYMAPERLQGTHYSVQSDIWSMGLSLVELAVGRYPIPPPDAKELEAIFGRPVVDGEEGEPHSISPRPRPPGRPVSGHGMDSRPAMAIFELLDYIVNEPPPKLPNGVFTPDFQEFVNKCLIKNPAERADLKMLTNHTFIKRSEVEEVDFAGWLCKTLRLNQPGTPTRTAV
compound,measurement,setting,value
CC12CC3CC(C)(C1)CC(N)(C3)C2 [memantine],cell toxicity / cell death (morphology),[1]; [5],death of neural stem cells
same,differentiation of NSC into neurons (morphology),"[1]; with or without 10 μM oligomeric Aβ(1-42), trametinib 10 nM, 100 nM, memantine 5 μM, 10 μM, 4 days",the differentiation of NSC into neurons was not observed
O=C(c1ccc(F)c(F)c1Nc1ccc(I)cc1F)N1CC(O)([C@@H]2CCCCN2)C1 [cobimetinib],IC50,MEK2,199 nM
same,differentiation of adult NSC (morphology),"[1]; 10 μM, regardless of amyloid-beta, day 2",did not induce the differentiation of adult NSC; also recorded: does not induce the differentiation of mouse adult neural stem cells
same,selectivity toward MEK1 compared with MEK2,MEK1; Molecules 2017;22:1551,≥ 100 ×
same,IC50,MEK1,0.95 nM
O=C(NOCC1CC1)c1ccc(F)c(F)c1Nc1ccc(I)cc1Cl [PD184352],NSC differentiation-inducing effect (morphology),"[2]; 0.1 μM, day 2 of culture",only a weak NSC differentiation-inducing effect
same,cell death (morphology),[2]; [6],all the cells died
N#CC(=C(/N)Sc1ccccc1N)/C(C#N)=C(\N)Sc1ccccc1N [U0126],cell proliferation (morphology),"[1]; 0.1 μM and 1.0 μM, day 2 of culture",inhibition of cell proliferation
same,differentiation-inducing effect (morphology),"[1]; 2.5 μM, day 2 of culture",did not show any clear differentiation-inducing effect
same,cytotoxicity (morphology),"[1]; 10 μM, day 2 of culture",showed cell cytotoxicity
same,NSC differentiation-inducing effect (morphology),[1]; all concentrations tested,failed to show any NSC differentiation-inducing effect
Cn1cnc2c(F)c(Nc3ccc(Br)cc3F)c(C(=O)NOCCO)cc21 [binimetinib],concentration at which differentiation morphology starts,[2]; day 2 of culture,10 μM
same,IC50,"MEK 1, MEK2",12 nM
same,cell protection and NSC differentiation under amyloid-beta cytotoxicity,[1]; day 2,provided cell protection and induced the differentiation of NSC
COc1cc(F)c(F)c(Nc2ccc(I)cc2F)c1NS(=O)(=O)C1(C[C@H](O)CO)CC1 [refametinib],concentration at which differentiation morphology starts,[2]; day 2 of culture,1.0 μM
same,cell protection and NSC differentiation under amyloid-beta cytotoxicity,[1]; day 2,provided cell protection and induced the differentiation of NSC
CNS(=O)(=O)Nc1nccc(Cc2c(C)c3ccc(Oc4ncccn4)cc3oc2=O)c1F [RO5126766],cell protection and NSC differentiation under amyloid-beta cytotoxicity,[1]; day 2,provided cell protection and induced the differentiation of NSC
same,concentration at which the differentiation-inducing effect starts,[1]; day 2 of culture,1.0 µM
Cc1cc(C(=O)NOCCO)c(Nc2ccc(I)cc2F)n(C)c1=O [AZD8330],concentration at which differentiation morphology starts,[2]; day 2 of culture,1.0 μM
same,cell protection and NSC differentiation under amyloid-beta cytotoxicity,[1]; day 2,provided cell protection and induced the differentiation of NSC
BI847325,cell proliferation (morphology),[1]; [7],cell proliferation seemed to be somewhat inhibited
same,differentiation-inducing effect (morphology),[1]; [7],a differentiation-inducing effect was not observed
same,differentiation-inducing effect (morphology),"[1]; 0.1 μM, day 2 of culture",only a weak differentiation-inducing effect
same,cell death (morphology),[1]; [6],all the cells died
O=C(NOCC(O)CO)c1cc(Br)c(F)c(F)c1Nc1ccc(I)cc1F (stereo not drawn) [PD318088],concentration at which differentiation morphology starts,[2]; day 2 of culture,1.0 μM
same,cell protection and NSC differentiation under amyloid-beta cytotoxicity,[1]; day 2,provided cell protection and induced the differentiation of NSC
O=C(NOC[C@H](O)CO)c1ccc(F)c(F)c1Nc1ccc(I)cc1F [PD0325901],concentration at which the differentiation-inducing effect starts,[1]; day 2 of culture,0.1 µM
O=C(NC[C@H](O)CO)c1ccncc1Nc1ccc(I)cc1F [AS703026],concentration required for neuronal differentiation to initiate,"[2]; added daily, 4 days of culture",1.0 µM
same,concentration at which differentiation morphology starts,[2]; day 2 of culture,10 μM
same,cell protection and NSC differentiation under amyloid-beta cytotoxicity,[1]; day 2,provided cell protection and induced the differentiation of NSC
same,concentration required for neuronal differentiation,"[1]; regardless of 10 μM amyloid-beta treatment, 4 days",10 µM
same,cell toxicity / cell death (morphology),[1]; [5],did not elicit cell toxicity
same,neuron differentiation by Tuj1 staining,[3]; 0.1 μM,no differentiation was observed
same,neuron differentiation by Tuj1 staining,[3]; 1.0 μM,"neuron differentiation occurs at this concentration, albeit only to a marginal extent"
same,Tuj1 and TH mRNA expression compared with trametinib,[4],comparable to those of 25 nM trametinib
